Measured values: PubChem BioAssay AID2060503 (Molecular Pharmacology Branch, DTP, NCI, 2025)

Test system: 817829-284-R-J1-PDC complex spheroids, viability
Experiment: Anticancer human tumor 817829-284-R-J1-PDC patient-derived colon adenocarcinoma cell line growth inhibition [GQUAD]
Conditions: for IC50: curve of first compound; for viability, T/C: stronger effect = lower value
Text: DNA G-quadruplex Stabilizer Agents in Combinations in Complex Spheroids
A high-throughput screen of multi-cell type tumor spheroids was designed to identify active combinations of DNA G-quadruplex stabilizer agents and targeted small molecules. Complex spheroids include a stromal component modeled by human endothelial cells (HUVEC) and fibroblasts modeled by human mesenchymal stem cells (MSCs). The concentration ranges selected for each drug and investigational agent were based upon clinically achievable concentrations if the clinical Cmax of the agent was known.
Compounds. The drugs and investigational agents: pidnarulex (CX-5461; NSC782164), APTO-253 (NSC789042), BRACO-19 (NSC847499), peposertib (NSC802822), ceralasertib (NSC780249), elimusertib (NSC800525), camonsertib (NSC841442), AZD-1390 (NSC803789), olaparib (NSC753686), talazoparib (NSC767125), ART-558 (NSC835418), sotorasib (NSC818433), MRTX-1133 (NSC836407), SN-38 (NSC673596), topotecan (NSC609699), etoposide (NSC141540), doxorubicin (NSC123127), gemcitabine (NSC613327), 5-fluorouracil (NSC19893), paclitaxel (NSC125973), vemurafenib (NSC761431), panobinostat (NSC761190), R-306465 (JNJ-16241199; NSC773264), adavosertib (NSC754352), TP-3654 (NSC805149), carboplatin (NSC241240), KSQ-4279 (NSC840948), and staurosporine (NSC755774) were obtained from the National Cancer Institute (NCI) Developmental Therapeutics Program Chemical Repository (34). The FDA-approved anticancer drug set is available from the NCI Developmental Therapeutics Program. […] The stock solutions were prepared in dimethyl sulfoxide (DMSO, Sigma-Aldrich, St. Louis, MO, cat. D2650) at 800-fold the tested concentration and stored at -70 degrees C prior to their use. All drugs and investigational agents were tested over a range starting from a high concentration at or near the clinical Cmax and decreasing in half-log increments. If the clinical Cmax for an agent had not been determined, the highest concentration tested was 10 microM.
2.3 Cell Culture. All cells were maintained in an incubator at 37 degrees C and 5% CO2 with 95% humidity. The PDC lines were cultured according to standard operating procedures established by the NCI PDMR. All PDCs were thawed and cultured in Matrigel-coated flasks prepared with a working solution of 1X Ham's F-12 nutrient mix, without supplementation (Invitrogen, cat. 11765054), 100 U/mL penicillin-streptomycin (Invitrogen, cat. 15140122), and 2.5% Matrigel (Corning Inc., cat. 354248) for the first three passages. The 857933-349-R-J2-PDC line was cultured in 6C/Colon 1B media, which includes advanced DMEM/F-12 (Thermo Fisher Scientific, cat. 12634028), 10 mM HEPES (Thermo Fisher Scientific, cat. 15630080), 1X GlutaMAX supplement (Thermo Fisher Scientific, cat. 35050061), 0.1 mg/mL primocin (InvivoGen, cat. ant-pm-2), 10% defined fetal bovine serum, heat inactivated (HyClone Laboratories Inc., cat. SH30070.03HI), 50% L-WRN conditioned media (ATCC, cat. CRL-3276), 1.25 mM N-Acetyl-L-cysteine (Sigma-Aldrich, cat. A9165), 10 mM nicotinamide (Sigma-Aldrich, cat. N0636), 1X B-27 supplement (Thermo Fisher Scientific, cat. 17504044), 1X N-2 supplement (Thermo Fisher Scientific, cat. 17502048), 10 microM Y-27632 dihydrochloride (Tocris Bioscience, cat. 1254), and 50 ng/mL human EGF recombinant protein (Thermo Fisher Scientific, cat. PHG0311). The 485176-168-R4-J1-PDC line was cultured in Panc media, which includes all 6C/Colon 1B media components plus 100 ng/mL human FGF-10 (Thermo Fisher Scientific, cat. 100-26), 500 nM SB-431542 (Selleckchem, cat. S1067), and gastrin (Tocris, cat. 3006).
[…]

[1] = second compound 0.0316 µM, first compound 0.000999 µM
[2] = second compound 0.0316 µM, first compound 0.00316 µM
[3] = second compound 0.0316 µM, first compound 0.00999 µM
[4] = second compound 0.0316 µM, first compound 0.0316 µM
[5] = second compound 0.0316 µM, first compound 0.0999 µM
[6] = second compound 0.0316 µM, first compound 0.316 µM
[7] = second compound 0.1 µM, first compound 0.000999 µM
[8] = second compound 0.1 µM, first compound 0.00316 µM
[9] = second compound 0.1 µM, first compound 0.00999 µM
[10] = second compound 0.1 µM, first compound 0.0316 µM
[11] = second compound 0.1 µM, first compound 0.0999 µM
[12] = second compound 0.1 µM, first compound 0.316 µM
[13] = second compound 0.316 µM, first compound 0.000999 µM
[14] = second compound 0.316 µM, first compound 0.00316 µM
[15] = second compound 0.316 µM, first compound 0.00999 µM
[16] = second compound 0.316 µM, first compound 0.0316 µM
[17] = second compound 0.316 µM, first compound 0.0999 µM
[18] = second compound 0.316 µM, first compound 0.316 µM
[19] = second compound 1 µM, first compound 0.000999 µM
[20] = second compound 1 µM, first compound 0.00316 µM
[21] = second compound 1 µM, first compound 0.00999 µM
[22] = second compound 1 µM, first compound 0.0316 µM
[23] = second compound 1 µM, first compound 0.0999 µM
[24] = second compound 1 µM, first compound 0.316 µM
[25] = second compound 3.16 µM, first compound 0.000999 µM
[26] = second compound 3.16 µM, first compound 0.00316 µM
[27] = second compound 3.16 µM, first compound 0.00999 µM
[28] = second compound 3.16 µM, first compound 0.0316 µM
[29] = second compound 3.16 µM, first compound 0.0999 µM
[30] = second compound 3.16 µM, first compound 0.316 µM
[31] = second compound 10 µM, first compound 0.000999 µM
[32] = second compound 10 µM, first compound 0.00316 µM
[33] = second compound 10 µM, first compound 0.00999 µM
[34] = second compound 10 µM, first compound 0.0316 µM
[35] = second compound 10 µM, first compound 0.0999 µM
[36] = second compound 10 µM, first compound 0.316 µM
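Note: spheroids exposed to agents for 7 days before readout.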
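Throughout, for viability, T/C: percent viability relative to DMSO vehicle control taken as 100%.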

In the case of `CCc1c2c(nc3ccc(O)cc13)-c1cc3c(c(=O)n1C2)COC(=O)[C@]3(O)CC` + CN(C)c1ccc(Nc2c3ccc(NC(=O)CCN4CCCC4)cc3nc3cc(NC(=O)CCN4CCCC4)ccc23)cc1, the IC50 (second compound 0.0316 µM) is reported as 1.19 nM, the IC50 (second compound 0.1 µM) is reported as 1.44 nM and the IC50 (second compound 0.316 µM) is reported as 2.21 nM. For the same compound, the IC50 (second compound 1 µM) was 2.22 nM, the IC50 (second compound 3.16 µM) was 2.78 nM and the IC50 (second compound 10 µM) was 2.02 nM. It also gave a viability, T/C [1] of 50.9%, a viability, T/C [2] of 44.4% and a viability, T/C [3] of 32.1%. For the same compound, the viability, T/C [4] was 21.4%, the viability, T/C [5] was 10.8% and the viability, T/C [6] was 6.33%. For the same compound, the viability, T/C [7] was 54.2%, the viability, T/C [8] was 40.1% and the viability, T/C [9] was 34.6%. For the same compound, the viability, T/C [10] was 19.8%, the viability, T/C [11] was 10.2% and the viability, T/C [12] was 4.96%. For the same compound, the viability, T/C [13] was 53.4%, the viability, T/C [14] was 48.3% and the viability, T/C [15] was 36.7%. For the same compound, the viability, T/C [16] was 19.2%, the viability, T/C [17] was 10.4% and the viability, T/C [18] was 5.53%. For the same compound, the viability, T/C [19] was 61.1%, the viability, T/C [20] was 44.1% and the viability, T/C [21] was 32.5%. The viability, T/C [22] was 21.3%, the viability, T/C [23] was 11.2% and the viability, T/C [24] was 5.92%. The viability, T/C [25] was 66.4%, the viability, T/C [26] was 45.1% and the viability, T/C [27] was 35%. For the same compound, the viability, T/C [28] was 23.7%, the viability, T/C [29] was 12.2% and the viability, T/C [30] was 6.09%. For the same compound, the viability, T/C [31] was 60.8%, the viability, T/C [32] was 42.9% and the viability, T/C [33] was 28.7%. For the same compound, the viability, T/C [34] was 20.6%, the viability, T/C [35] was 11.4% and the viability, T/C [36] was 6.76%.
In the case of `Cn1ncnc1[C@H]1c2n[nH]c(=O)c3cc(F)cc(c23)N[C@@H]1c1ccc(F)cc1` + CN(C)c1ccc(Nc2c3ccc(NC(=O)CCN4CCCC4)cc3nc3cc(NC(=O)CCN4CCCC4)ccc23)cc1, the IC50 (second compound 0.0316 µM) is reported as over 316 nM, the IC50 (second compound 0.1 µM) is reported as over 316 nM and the IC50 (second compound 0.316 µM) is reported as over 316 nM. For the same compound, the IC50 (second compound 1 µM) was over 316 nM, the IC50 (second compound 3.16 µM) was over 316 nM and the IC50 (second compound 10 µM) was over 316 nM. For the same compound, the viability, T/C [1] was 91.3%, the viability, T/C [2] was 112% and the viability, T/C [3] was 112%. It also gave a viability, T/C [4] of 95%, a viability, T/C [5] of 85.1% and a viability, T/C [6] of 68.9%. For the same compound, the viability, T/C [7] was 95.6%, the viability, T/C [8] was 105% and the viability, T/C [9] was 95.4%. For the same compound, the viability, T/C [10] was 94%, the viability, T/C [11] was 86.2% and the viability, T/C [12] was 80%. For the same compound, the viability, T/C [13] was 95.8%, the viability, T/C [14] was 104% and the viability, T/C [15] was 95.8%. For the same compound, the viability, T/C [16] was 101%, the viability, T/C [17] was 97.7% and the viability, T/C [18] was 78.6%. It also gave a viability, T/C [19] of 90%, a viability, T/C [20] of 99% and a viability, T/C [21] of 99.6%. For the same compound, the viability, T/C [22] was 92.6%, the viability, T/C [23] was 90.4% and the viability, T/C [24] was 71.8%. For the same compound, the viability, T/C [25] was 92.2%, the viability, T/C [26] was 99.7% and the viability, T/C [27] was 90.6%. It also gave a viability, T/C [28] of 89.2%, a viability, T/C [29] of 104% and a viability, T/C [30] of 79.9%. It also gave a viability, T/C [31] of 97.2%, a viability, T/C [32] of 97.3% and a viability, T/C [33] of 89.6%. For the same compound, the viability, T/C [34] was 81.2%, the viability, T/C [35] was 79.1% and the viability, T/C [36] was 63.4%.
